Earlier results as cited in patent US6964953B2, “Methods for treating stress disorders using glucocorticoid receptor-specific antagonists” (Corcept Therapeutics, Inc., priority 2001, dated 2005).

Key:
[1] = target: T1, progesterone receptor (Homo sapiens, UniProt P06401); settings: result in words
T1 sequence (P06401 1-933): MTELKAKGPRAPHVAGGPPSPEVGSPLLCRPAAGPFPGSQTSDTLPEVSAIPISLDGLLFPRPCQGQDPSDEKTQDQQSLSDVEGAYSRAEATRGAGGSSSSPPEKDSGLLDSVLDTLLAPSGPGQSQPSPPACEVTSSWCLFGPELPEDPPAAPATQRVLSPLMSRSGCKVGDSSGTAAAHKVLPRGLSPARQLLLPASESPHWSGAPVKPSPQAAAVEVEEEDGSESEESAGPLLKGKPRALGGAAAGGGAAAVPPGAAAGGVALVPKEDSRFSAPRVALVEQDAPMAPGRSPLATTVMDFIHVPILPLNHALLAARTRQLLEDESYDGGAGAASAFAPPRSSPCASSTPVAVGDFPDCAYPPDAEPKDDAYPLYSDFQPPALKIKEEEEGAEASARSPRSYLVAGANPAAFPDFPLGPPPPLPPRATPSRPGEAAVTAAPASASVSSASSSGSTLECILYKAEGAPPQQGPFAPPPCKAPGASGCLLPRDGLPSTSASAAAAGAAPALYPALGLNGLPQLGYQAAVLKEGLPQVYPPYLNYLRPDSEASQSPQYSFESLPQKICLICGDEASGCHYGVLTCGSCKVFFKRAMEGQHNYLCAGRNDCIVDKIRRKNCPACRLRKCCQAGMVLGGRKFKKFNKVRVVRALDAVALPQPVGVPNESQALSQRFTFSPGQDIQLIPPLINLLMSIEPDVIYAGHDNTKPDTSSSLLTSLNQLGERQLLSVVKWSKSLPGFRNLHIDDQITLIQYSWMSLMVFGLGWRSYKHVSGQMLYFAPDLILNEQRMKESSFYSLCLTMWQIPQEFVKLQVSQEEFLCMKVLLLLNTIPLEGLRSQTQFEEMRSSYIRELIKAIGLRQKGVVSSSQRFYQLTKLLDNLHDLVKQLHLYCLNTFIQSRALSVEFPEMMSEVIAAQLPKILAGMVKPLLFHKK

[2] = target: T2, glucocorticoid (GR) receptor (Homo sapiens, UniProt P04150); settings: result in words
T2 sequence (P04150 1-777): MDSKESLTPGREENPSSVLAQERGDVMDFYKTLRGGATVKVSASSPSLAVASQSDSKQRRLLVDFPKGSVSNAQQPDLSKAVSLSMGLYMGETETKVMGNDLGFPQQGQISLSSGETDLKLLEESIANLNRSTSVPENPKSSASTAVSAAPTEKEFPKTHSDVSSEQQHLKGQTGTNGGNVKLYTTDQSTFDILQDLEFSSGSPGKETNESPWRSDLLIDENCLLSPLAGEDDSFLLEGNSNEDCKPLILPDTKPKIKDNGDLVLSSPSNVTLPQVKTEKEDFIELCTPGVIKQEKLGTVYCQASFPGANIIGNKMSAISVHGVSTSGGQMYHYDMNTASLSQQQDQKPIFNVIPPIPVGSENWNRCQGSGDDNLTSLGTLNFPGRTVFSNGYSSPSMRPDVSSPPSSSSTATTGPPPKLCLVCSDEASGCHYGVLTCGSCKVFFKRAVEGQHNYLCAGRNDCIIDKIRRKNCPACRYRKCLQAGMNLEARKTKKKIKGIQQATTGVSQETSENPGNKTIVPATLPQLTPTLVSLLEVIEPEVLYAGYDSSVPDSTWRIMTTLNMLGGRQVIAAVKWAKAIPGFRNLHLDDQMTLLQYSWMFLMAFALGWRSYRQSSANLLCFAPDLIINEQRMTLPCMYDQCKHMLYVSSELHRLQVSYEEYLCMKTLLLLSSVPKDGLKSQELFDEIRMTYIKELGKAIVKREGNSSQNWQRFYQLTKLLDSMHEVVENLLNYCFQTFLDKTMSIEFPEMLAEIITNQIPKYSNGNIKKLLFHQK

[3] = in one study; Kawai (1989)
[4] = system: rat hippocampus; settings: Talmi et al. 1996
[5] = system: mouse hippocampus neuronal cells; settings: Behl et al. 1997

SMILES | progesterone receptor antagonist activity [1] | GR antagonist activity [2] | daily dose excreted in the urine [3] | abrogation of age-associated electrophysiological changes [4] | protection against oxidative stress-induced neuronal cell death [5]
CC#C[C@]1(O)CC[C@H]2[C@@H]3CCC4=CC(=O)CCC4=C3[C@@H](c3ccc(N(C)C)cc3)C[C@@]21C [Mifepristone, 17-beta-hydroxy-11-beta-(4-dimethyl-aminophenyl)-17-alpha-(1-propynyl)-estra-4,9-dien-3-one] | powerful antagonist | powerful antagonist | less than 0.5% | effective at abrogating some of the age-associated electrophysiological changes | providing protection against oxidative stress-induced neuronal cell death
CC#C[C@]1(O)CC[C@H]2[C@@H]3CCC4=CC(=O)CCC4=C3[C@@H](c3ccc(OCCN(C)C)cc3)C[C@@]21C [RU009, 11-beta-(4-dimethyl-aminoethoxyphenyl)-17-alpha-(propynyl-17 beta-hydroxy-4,9-estradien-3-one)] | – | shown to have GR antagonist effects | – | – | –
